In patent US20250276079A1, “COMBINATION OF ANTIBODY-DRUG CONJUGATE WITH EZH1 and/or EZH2 INHIBITOR” (DAIICHI SANKYO COMPANY, LIMITED, priority 2022, published 2025):

How the values were obtained:
Assay type in all cases: in vivo
[1] = tested on: Human gastric cancer cell line NCI-N87; test: Antitumor study (1): NCI-N87 subcutaneous xenograft; details: Day 63; NCI-N87 s.c. in female SCID mice; Compound A feed mix 0.3% Day 6 to Day 34; HER2-ADC (1) 2 mg/kg i.v. Day 10
Description: (§1) Measurement and calculation formula: In all studies, the major axis and minor axis of tumors were measured once a week or twice a week with an electronic digital caliper, and the estimated tumor volume (mm^3) was calculated. The calculation formula is as shown below.
(§2) Tumor growth inhibition (TGI) was calculated in accordance with the following calculation formula.
(§3) [formula] • T: Average estimated tumor volume of mice of test substance administration group • C: Average estimated tumor volume of mice of control group
(§4) The HER2-ADC (1) was diluted with ABS buffer (10 mM acetate buffer [pH 5.5], 5% sorbitol), and intravenously administered in a fluid volume of 10 mL/kg to the tail vein. The Compound A was orally administered by a feed mix containing 0.3% of Compound A.
(§5) These methods are common to Examples 5 to 8, and Examples 11 to 16. In Example 12 to Example 16, TROP2-ADC (1), HER3-ADC (1), CD37-ADC (1), or B7-H3-ADC (1) was used in the evaluation. Moreover, the Compound A was orally administered by a feed mix containing 0.25% of Compound A in Example 12 to Example 16.
Human gastric cancer cell line NCI-N87, which was purchased from ATCC (American Type Culture Collection), was suspended into DPBS (Dulbecco's phosphate-buffered saline) and subcutaneously transplanted at 1×10^7 cells into the right side of each female SCID (Severe Combined Immunodeficient) mouse (CLEA Japan, Inc.) (Day 0). […]

[2] = tested on: Human breast cancer cell line JIMT-1; test: Antitumor study (2): JIMT-1 subcutaneous xenograft, HER2-ADC (1); details: Day 52; JIMT-1 s.c. in female SCID mice; Compound A feed mix 0.3% Day 14 to Day 42; HER2-ADC (1) 10 mg/kg i.v. Day 18
Description: as §1, §2, §3, §4, §5
Human breast cancer cell line JIMT-1, which was purchased from DSMZ (Deutsche Sammlung von Mikroorganismen und Zellkulturen GmbH), was suspended into DPBS and subcutaneously transplanted at 5×10^6 cells into the right side of each female SCID mouse (CLEA Japan, Inc.) (Day 0). […]

[3] = tested on: Human breast cancer cell line MDA-MB-453; test: Antitumor study (3): MDA-MB-453 subcutaneous xenograft; details: Day 74; MDA-MB-453 s.c. in female SCID mice; Compound A feed mix 0.3% Day 18 to Day 46; HER2-ADC (1) 1 mg/kg i.v. Day 22
Description: as §1, §2, §3, §4, §5
Human breast cancer cell line MDA-MB-453, which was purchased from ATCC, was suspended into 50% Matrigel matrix and subcutaneously transplanted at 1×10^7 cells into the right side of each female SCID mouse (CLEA Japan, Inc.) (Day 0). Eighteen days later, the mice were divided into groups based on estimated tumor volumes. […]

[4] = tested on: Human breast cancer cell line MX-1; test: Antitumor study (4): MX-1 subcutaneous xenograft; details: Day 51; MX-1 s.c. in female SCID mice; Compound A feed mix 0.3% Day 13 to Day 41; HER2-ADC (1) 3 mg/kg i.v. Day 17
Description: as §1, §2, §3, §4, §5
Human breast cancer cell line MX-1, which was purchased from CLS (Cell Lines Service), was suspended into 50% Matrigel matrix and subcutaneously transplanted at 5×10^6 cells into the right side of each female SCID mouse (CLEA Japan, Inc.) (Day 0). […]

[5] = tested on: Human breast cancer cell line ZR-75-1; test: Antitumor study (5): ZR-75-1 subcutaneous xenograft; details: Day 49; ZR-75-1 s.c. in female NSG mice (estradiol cypionate weekly); Compound A feed mix 0.3% Day 14 to Day 42; HER2-ADC (1) 5 mg/kg i.v. Day 14
Description: as §1, §2, §3, §4
These methods are common to Examples 5 to 8, and Examples 11 to 16. In Example 12 to Example 16, TROP2-ADC (1), HER3-ADC (1), CD37-ADC (1), or B7-H3-ADC (1) was used in the evaluation. Moreover, the Compound A was orally administered by a feed mix containing 0.25% of Compound A in Example 12 to Example 16. […]

[6] = tested on: Human non-small lung cancer cell line Calu-3; test: Antitumor study (6): Calu-3 subcutaneous xenograft; details: Day 35; Calu-3 s.c. in female SCID mice; Compound A feed mix 0.3% Day 14 to Day 42; HER2-ADC (1) 1 mg/kg i.v. Day 14
Description: as §1, §2, §3, §4, §5
Human non-small lung cancer cell line Calu-3, which was purchased from ATCC (American Type Culture Collection), was suspended into Matrigel matrix and subcutaneously transplanted at 3×10^6 cells into the right side of each female SCID mouse (The Jackson Laboratory Japan, Inc.) (Day 0). […]

[7] = tested on: Human non-small lung cancer cell line NCI-H358; test: Antitumor study (7): NCI-H358 subcutaneous xenograft; details: Day 115; NCI-H358 s.c. in female SCID mice; Compound A feed mix 0.25% Day 24 to Day 66; TROP2-ADC (1) 10 mg/kg i.v. Day 24 and Day 45
Description: as §1, §2, §3, §4, §5
Human non-small lung cancer cell line NCI-H358, which was purchased from ATCC (American Type Culture Collection), was suspended into 50% Matrigel matrix and subcutaneously transplanted at 3×10^6 cells into the right side of each female SCID mouse (CLEA Japan, Inc.) (Day 0). […]

[8] = tested on: Human breast cancer cell line JIMT-1; test: Antitumor study (8): JIMT-1 subcutaneous xenograft, HER3-ADC (1); details: Day 46; JIMT-1 s.c. in female SCID mice; Compound A feed mix 0.25% Day 11 to Day 39; HER3-ADC (1) 10 mg/kg i.v. Day 11
Description: as §1, §2, §3, §4, §5
Human breast cancer cell line JIMT-1, which was purchased from DSMZ (Deutsche Sammlung von Mikroorganismen und Zellkulturen GmbH), was suspended into saline and subcutaneously transplanted at 5×10^6 cells into the right side of each female SCID mouse (CLEA Japan, Inc.) (Day 0). […]

[9] = tested on: Human diffuse large B-cell lymphoma cell line WSU-DLCL2; test: Antitumor study (9): WSU-DLCL2 subcutaneous xenograft; details: Day 44; WSU-DLCL2 s.c. in female SCID mice; Compound A feed mix 0.25% Day 16 to Day 44; CD37-ADC (1) 1 mg/kg i.v. Day 16
Description: as §1, §2, §3, §4, §5
Human diffuse large B-cell lymphoma cell line WSU-DLCL2, which was purchased from DSMZ (Deutsche Sammlung von Mikroorganismen und Zellkulturen GmbH), was suspended into DPBS and subcutaneously transplanted at 1×10^7 cells into the right side of each female SCID mouse (CLEA Japan, Inc.) (Day 0). […]

[10] = tested on: Human neuroendocrine prostate cancer cell line NCI-H660; test: Antitumor study (10): NCI-H660 subcutaneous xenograft; details: Day 58; NCI-H660 s.c. in castrated male SCID mice; Compound A feed mix 0.25% Day 29 to Day 58; B7-H3-ADC (1) 0.3 mg/kg i.v. Day 29 and Day 43
Description: as §1, §2, §3, §4, §5
Human neuroendocrine prostate cancer cell line NCI-H660, which was purchased from ATCC (American Type Culture Collection), was suspended into 50% Matrigel matrix and subcutaneously transplanted at 2×10^6 cells into the right side of each castrated male SCID mouse (CLEA Japan, Inc.) (Day 0). […]

Cc1cc(C)c(CNC(=O)c2cc(Cl)c3c(c2C)O[C@@](C)([C@H]2CC[C@H](N(C)C)CC2)O3)c(=O)[nH]1 [Compound A, (2R)-7-chloro-2-[trans-4-(dimethylamino)cyclohexyl]-N-[(4,6-dimethyl-2-oxo-1,2-dihydropyridin-3-yl)methyl]-2,4-dimethyl-1,3-benzodioxole-5-carboxamide p-toluene sulfonate]
Tumor growth inhibition (TGI) [1]: 38% | Tumor growth inhibition (TGI) [2]: 19% | Tumor growth inhibition (TGI) [3]: 41% | Tumor growth inhibition (TGI) [4]: 9% | Tumor growth inhibition (TGI) [5]: 53% | Tumor growth inhibition (TGI) [6]: 20% | Tumor growth inhibition (TGI) [7]: 20% | Tumor growth inhibition (TGI) [8]: 41% | Tumor growth inhibition (TGI) [9]: 31% | Tumor growth inhibition (TGI) [10]: 80%
